Assay results: patent publication EP0971717B1, “CYTOTOXIC AMINO SUGAR AND RELATED SUGAR DERIVATIVES OF INDOLOPYRROLOCARBAZOLES” (Bristol-Myers Squibb Company, priority 1996, dated 1998)
pEC50, pIC50: −log10 of the molar value. Blank lines part the entries; values can stand above or below the compound they belong to.

Tests used:
[1] = target: T1, purified human topoisomerase I (Homo sapiens, UniProt P11387); assay: Topoisomerase I mediated single strand break formation in DNA (in vitro); format: biochemical; conditions: for pEC50: PM2 DNA, 30 minutes at 37° C, median effective concentration for single strand DNA break formation; for Topo-I activity: result in words
T1 construct: purchased Topogen
T1 sequence (P11387 1-765): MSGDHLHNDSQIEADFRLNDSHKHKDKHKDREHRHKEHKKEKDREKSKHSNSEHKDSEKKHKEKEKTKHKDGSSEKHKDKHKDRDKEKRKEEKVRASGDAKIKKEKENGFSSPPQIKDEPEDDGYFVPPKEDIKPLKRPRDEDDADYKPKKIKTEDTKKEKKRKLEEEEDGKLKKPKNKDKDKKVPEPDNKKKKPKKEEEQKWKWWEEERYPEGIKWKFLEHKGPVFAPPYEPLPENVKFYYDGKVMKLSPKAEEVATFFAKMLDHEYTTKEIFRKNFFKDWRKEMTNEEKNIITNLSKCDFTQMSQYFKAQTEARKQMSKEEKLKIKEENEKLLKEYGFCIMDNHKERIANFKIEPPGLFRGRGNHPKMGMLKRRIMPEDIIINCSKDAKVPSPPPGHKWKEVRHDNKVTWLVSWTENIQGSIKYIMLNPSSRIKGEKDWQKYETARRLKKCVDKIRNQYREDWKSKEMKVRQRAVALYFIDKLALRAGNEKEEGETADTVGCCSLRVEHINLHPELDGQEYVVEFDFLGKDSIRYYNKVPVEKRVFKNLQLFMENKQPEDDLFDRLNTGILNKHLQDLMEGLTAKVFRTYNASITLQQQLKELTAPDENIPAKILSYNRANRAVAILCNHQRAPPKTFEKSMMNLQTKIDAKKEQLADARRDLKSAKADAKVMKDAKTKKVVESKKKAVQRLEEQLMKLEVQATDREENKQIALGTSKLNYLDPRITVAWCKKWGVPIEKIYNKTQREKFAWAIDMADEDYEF
Description: Samples dissolved in 100% DMSO as either […] or 10 mg/ml solutions, unless otherwise stated, were diluted in Tris-EDTA buffer. Marine bacteriophage PM2 DNA (Boehringer Mannheim) was also diluted in Tris-EDTA buffer to a concentration of 0.02 µg/µl. Different dilutions of compound being evaluated were mixed with diluted DNA and this mixture was added to 1000 unit (one unit of enzyme activity is defined as the amount capable of relaxing 100 ng of supercoiled DNA in approximately 30 minutes at 37°C) aliquots of purified human topoisomerase I (Topogen) in 2X reaction buffer to start the reaction. The compound - DNA - enzyme mixture was incubated for 30 minutes at 37° C before stopping the reaction with warm stop buffer containing sodium dodecyl sulfate and proteinase K (Sigma). These mixtures were allowed to incubate at 37° C for another 10 minutes, at which time the mixtures were removed from the waterbath and extracted with a 24:1 mixture of chloroform/isoamyl alcohol. Following centrifugation, aliquots of the aqueous phases were placed in wells of a 0.9% agarose (SeaKem) gel in Tris-borate buffer containing 0.5 µg/ml of ethidium bromide and subjected to electrophoresis for 15 hours to separate the different topological isomers and nicked and broken DNAs. After destaining the gel in water, the ethidium bromide stained DNA reaction products were visualized by exposing the gel to UV irradiation. Negatives of photographs of the irradiated gels were scanned with a densitometer and areas under the peaks were calculated in order to obtain percent single strand DNA break formation for each sample. A median effective concentration(EC50) was obtained for each compound by interpolation between points of the resulting dose - effect curve which defines the potency of the compound for its effect for inducing topoisomerase I mediated single strand breaks in DNA.

[2] = tested on: HCT116 human colon carcinoma cells; assay: In-vitro cell-based cytotoxicity, XTT assay; conditions: HCT-116, 72 hrs incubation, absorbance at 450 nm
Description: The proliferation inhibition activity against human colon cell line was measured as follows.
Cytotoxicity was assessed in HCT116 human colon carcinoma cells by XTT (2,3-bis(2-methoxy-4-nitro- 5-sulfophenyl)-5-[(phenylamino)carbonyl]-2H-tetrazolium hydroxide assay as described in the literature by Scudiero, DA, Shoemaker, RH, Paull, KD, Monks, A, Tierney, S, Nofziger, TH, Currens, MJ, Seniff, D, and Boyd, MR. Evaluation of a soluble tetrazolium/formazan assay for cell growth and drug sensitivity in culture using human and other tumor cell lines, was done according to the procedure described in Cancer Res. 48: 4827-4833, 1988. Cells were plated at 4000 cells/well in 96 well microtiter plates and 24 hrs later drugs were added and serial diluted. The cells were incubated at 37° C for 72 hrs at which time the tetrazolium dye, XTT, containing phenazine methosulfate was added. A dehydrogenase enzyme in live cells reduces the XTT to a form that absorbs light at […] which can be quantitated spectrophotometrically. The greater the absorbance the greater the number of live cells. The results are expressed as an IC50 which is the drug concentration required to inhibit cell proliferation (i.e. absorbance at 450 nm) to 50% of that of untreated control cells.

P388 leukemia cells = assay: In-vivo anti-tumor efficacy against ip implanted P388 leukemia; set-up: species or system mice (BDF1 or CDF1); MST: unit not given here; conditions: for T/C (%): ip, MST(T)/MST(C) x 100, activity defined as >= 125%; for MST: one ip injection one day after implant, median survival time of treated mice
Description: In-vivo antitumor experiments were initiated by implanting mice (BDF1 or CDF1) ip with 10(6) P388 leukemia cells. Treatments were initiated one day after implant and involved one ip injection per dose level; several dose levels were evaluated per compound. Six mice were typically used per dose level in treatment groups, and eight to ten mice were used as parallel untreated leukemic controls. Evaluation of activity was made on the basis of comparing the median survival time (MST) of treated (T) mice with the MST of control (C) mice. Activity was defined as a %T/C of > or = 125%, calculated as: MST(T)/MST(C) x 100 = %T/C Table I

SMILES: NC[C@H]1O[C@@H](n2c3cc(F)ccc3c3c4c(c5c6ccc(F)cc6[nH]c5c32)C(=O)N(N)C4=O)[C@H](O)[C@@H](O)[C@@H]1O [Example 18, 6-Amino-13-(6-amino-6-deoxy-β-D-glucopyranosyl)-2,10-difluoro-12,13-dihydro-5H-indolo[2,3-a]pyrrolo[3,4-c]carbazole-5,7(6H)-dione]
Topo-I activity (concentration without activity) [1]: greater than 100 micro molar
pEC50 [1]: < 4.00
pIC50 [2]: < 5.84

SMILES: NC[C@H]1O[C@@H](n2c3ccc(F)cc3c3c4c(c5c6cc(F)ccc6[nH]c5c32)C(=O)NC4=O)[C@H](O)[C@@H](O)[C@@H]1O [Example 19]
T/C (%) (P388 leukemia cells; P388, 25 mg/kg/dose): 155%
MST (P388 leukemia cells; P388, 25 mg/kg/dose): 17.0
T/C (%) (P388 leukemia cells; P388, 50 mg/kg/dose): 168%
MST (P388 leukemia cells; P388, 50 mg/kg/dose): 18.5
T/C (%) (P388 leukemia cells; P388, 100 mg/kg/dose): 182%
MST (P388 leukemia cells; P388, 100 mg/kg/dose): 20.0
T/C (%) (P388 leukemia cells; P388, 200 mg/kg/dose): 82%
MST (P388 leukemia cells; P388, 200 mg/kg/dose): 9.0
anti-tumor activity (P388 leukemia cells; result in words): effective anti-tumor agent
pEC50 [1]: 7.40
Topo-I activity [1]: sub micro molar
pIC50 [2]: 6.96

SMILES: O=C1NC(=O)c2c1c1c3cc(F)ccc3[nH]c1c1c2c2cc(F)ccc2n1[C@@H]1O[C@H](CN2CCOCC2)[C@@H](O)[C@H](O)[C@H]1O [Example 29, 3,9-Difluoro-12,13-dihydro-13-[6-(4N-morpholino)-β-D-glucopyranosyl]-5H-indolo[2,3-a]pyrrolo [3,4-c] carbazole-5,7(6H)-dione]
T/C (%) (P388 leukemia cells; P388, 25 mg/kg/dose): 127%
MST (P388 leukemia cells; P388, 25 mg/kg/dose): 14.0
T/C (%) (P388 leukemia cells; P388, 50 mg/kg/dose): 109%
MST (P388 leukemia cells; P388, 50 mg/kg/dose): 12.0
T/C (%) (P388 leukemia cells; P388, 100 mg/kg/dose): 150%
MST (P388 leukemia cells; P388, 100 mg/kg/dose): 16.5
T/C (%) (P388 leukemia cells; P388, 200 mg/kg/dose): 91%
MST (P388 leukemia cells; P388, 200 mg/kg/dose): 10
pEC50 [1]: 8.00
pIC50 [2]: 7.05

SMILES: [N-]=[N+]=NC[C@H]1O[C@@H](n2c3ccc(F)cc3c3c4c(c5c6cc(F)ccc6[nH]c5c32)C(=O)N(O)C4=O)[C@H](O)[C@@H](O)[C@@H]1O [Example 30, 3,9-Difluoro-12,13-dihydro-13-[6-azido-β-D-glucopyranosyl]-5H-indolo[2,3-a]pyrrolo [3,4-c] carbazole-5,7(6-hydroxy)dione]
pEC50 [1]: > 8.00

SMILES: NC[C@H]1O[C@@H](n2c3ccc(F)cc3c3c4c(c5c6cc(F)ccc6[nH]c5c32)C(=O)N(O)C4=O)[C@H](O)[C@@H](O)[C@@H]1O [Example 31, 3,9-Difluoro-12,13-dihydro-13-[6-amino-β-D-glucopyranosyl]-5H-indolo[2,3-a]pyrrolo [3,4-c] carbazole-5,7(6-hydroxy)dione]
pEC50 [1]: > 8.00

SMILES: O=C1NC(=O)c2c1c1c3cc(F)ccc3[nH]c1c1c2c2cc(F)ccc2n1[C@@H]1O[C@H](Cn2ccnc2)[C@@H](O)[C@H](O)[C@H]1O [Example 34]
pEC50 [1]: 4.64

SMILES: CN1CCN(C[C@H]2O[C@@H](n3c4ccc(F)cc4c4c5c(c6c7cc(F)ccc7[nH]c6c43)C(=O)NC5=O)[C@H](O)[C@@H](O)[C@@H]2O)CC1 [Example 35]
pEC50 [1]: 6.12
pIC50 [2]: 6.30

The next lines start with results.

pEC50 [1]: 7.52
SMILES: CS(=O)(=O)OC[C@H]1O[C@@H](n2c3ccc(F)cc3c3c4c(c5c6cc(F)ccc6[nH]c5c32)C(=O)NC4=O)[C@H](O)[C@@H](O)[C@@H]1O [Example 15, 3,9-Difluoro-12,13-dihydro-13-[6-O-(methylsulfonyl)-β-D-glucopyranosyl]-5H-indolo[2,3-a]pyrrolo[3,4-c]carbazole-5,7(6H)-dione]
pIC50 [2]: 6.59

pEC50 [1]: 7.00
SMILES: O=C1NC(=O)c2c1c1c3cc(F)ccc3[nH]c1c1c2c2cc(F)ccc2n1[C@@H]1O[C@H](CF)[C@@H](O)[C@H](O)[C@H]1O [Example 47]

pEC50 [1]: 6.40
SMILES: O=C1c2c(c3c4cc(F)ccc4n([C@@H]4O[C@H](CF)[C@@H](O)[C@H](O)[C@H]4O)c3c3[nH]c4ccc(F)cc4c23)C(=O)N1O [Example 48]

pEC50 [1]: 7.52
SMILES: CCN(CC)C[C@H]1O[C@@H](n2c3ccc(F)cc3c3c4c(c5c6cc(F)ccc6[nH]c5c32)C(=O)N(O)C4=O)[C@H](O)[C@@H](O)[C@@H]1O [Example 68]

pEC50 [1]: 7.52
SMILES: O=C1c2c(c3c4cc(F)ccc4n([C@@H]4O[C@H](CF)[C@@H](O)[C@H](O)[C@H]4O)c3c3sc4ccc(F)cc4c23)C(=O)N1O [Example 69]

Topo-I activity [1]: not Topo-I active
SMILES: CO[C@H]1[C@H](O)[C@@H](O)[C@H](n2c3c(Cl)cccc3c3c4c(c5c6cccc(Cl)c6[nH]c5c32)C(=O)NC4=O)O[C@@H]1CO [rebeccamycin, reference compound]
